What was measured:
cells = assay: Agar diffusion plaque inhibition assay, zone of cytotoxicity (cell death); format: cell-based; conditions: 50 μg of test compound
Method: These tests were performed by the methods described in the following published reference: (H. E. Renis, C. A. Hollowell, and G. E. Underwood, J. Med. Chem., Vol 10, pp 777-782 (1967)). Both DNA and RNA-containing viruses were used. The results are presented below as the zone of cytotoxicity (cell death)/zone of viral plaque inhibition for 50 μg of test compound.

PR-8 Influenza (RNA) = format: cell-based, Influenza virus; conditions: PR8; 50 μg of test compound
[1] = system: Coxsackie A21 virus (RNA); assay: Agar diffusion plaque inhibition assay, COE; format: cell-based; conditions: 50 μg of test compound
[2] = system: Parainfluenza 3 virus (RNA); format: cell-based; conditions: HA-1; 50 μg of test compound
Equine rhinovirus (RNA) = assay: Agar diffusion plaque inhibition assay, E.R.; format: cell-based; conditions: 50 μg of test compound
[3] = system: Herpes simplex virus type I (DNA); assay: Agar diffusion plaque inhibition assay, HSV-1; format: cell-based; conditions: 50 μg of test compound
[4] = system: Herpes simplex virus type II (DNA); assay: Agar diffusion plaque inhibition assay, HSV-2; format: cell-based; conditions: 50 μg of test compound
Vaccinia virus (DNA) = format: cell-based; conditions: VACC.; 50 μg of test compound

With `COc1ccc(C[C@H]2C(=O)O[C@H](C)[C@H](NC(=O)[C@@H](CC(C)C)N(C)C(=O)C3CCCN3C(=O)C(C)OC(C)=O)C(=O)NC(CC(C)C)C(OC(C)=O)CC(=O)OC(C(C)C)C(=O)C(C)C(=O)N[C@@H](CC(C)C)C(=O)N3CCC[C@H]3C(=O)N2C)cc1` (some centres unmarked) [Diacetyl] the “zone of cytotoxicity (cell death)” value (cells; COE) was 3, the “zone of cytotoxicity (cell death)” value (cells; E.R.) was 2 and the “zone of cytotoxicity (cell death)” value (cells; HA-1) was 1. The “zone of cytotoxicity (cell death)” value (cells; HSV-1) was 3, the “zone of cytotoxicity (cell death)” value (cells; HSV-2) was 3 and the “zone of cytotoxicity (cell death)” value (cells; PR8) was 3. For the same compound, the “zone of cytotoxicity (cell death)” value (cells; VACC.) was 3, the “zone of viral plaque inhibition” value (PR-8 Influenza (RNA)) was 0 and the “zone of viral plaque inhibition” value [1] was 3. The “zone of viral plaque inhibition” value [2] was 0, the “zone of viral plaque inhibition” value (Equine rhinovirus (RNA)) was 4 and the “zone of viral plaque inhibition” value [3] was 4. The “zone of viral plaque inhibition” value [4] was 4 and the “zone of viral plaque inhibition” value (Vaccinia virus (DNA)) was 4.

Reference: patent US4493796A, “Didemnins A, B, C, and derivatives thereof, as antiviral agents” (Board of Trustees, Univ. of Ill., priority 1984, dated 1985)
